Test results as given in patent publication US20080194522A1, “Development of Fluorogenic Substrates For Monoamine Oxidases (Mao-A and Mao-B)” (priority 2004, published 2008).
“Also recorded” adds a separate entry of the source. Marks after values point to notes of the source that are not given here.

Experiments:
[1] = Photophysical characterization (absorbance, extinction coefficient, emission, quantum yield); assay type: physicochemical; conditions: for ΦEtOH: EtOH; for ΦH2O: H2O; for fluorescence, in words: aqueous / phosphate buffer
Description: Extinction coefficients were the average of three independent determinations of three different readings from the lowest energy transition at three concentrations. Quantum yields are the average of three determinations of both quantum yield standard 9,10-diphenylanthracene and the synthesized coumarines at 340 nm unless otherwise indicated.
All spectra were recorded in 100 mM sodium phosphate (pH 7.4) unless otherwise indicated. Recorded λmax is that of the longest wavelength transition. Extinction coefficients were reported as the average of at least three independent preparations of the probes. Fluorescence measurements were taken on a Jobin Yvon Fluorolog fluorescence spectrofluorometer (slits 3, HV 750) in 100 mM sodium phosphate pH 7.4 buffer unless otherwise indicated. Quantum yields were measured relative to 9,10 diphenylanthracene in EtOH.4 Reported quantum efficiencies are the average of at least three independent preparations of the probes.
The extinction coefficient ε relates the absorbance of a compound to its concentration as expressed in Beer's law (A=εbc where A is absorbance, b is pathlength, and c is concentration). Extinction coefficients were the average of three independent determinations of three different readings of absorbance from the lowest energy transition at three concentrations. The quantum yield of fluorescence is the fraction of absorbed photons that lead to fluorescence; the number of photons fluoresced divided by the number of photons absorbed. To obtain the quantum yields of the synthesized coumarines their efficiency was compared to standard 9,10-diphenylanthracene at 340 nm in three different determinations. The effect of different solvents on the fluorescence of the compounds was also tested. The compounds were dissolved in methanol, chloroform and toluene and their emissions spectrum was taken.

[2] = Solubility in aqueous solution; assay type: physicochemical; conditions: in words
Chemical stability = conditions: in words
[3] = Table 5, 100 mM sodium phosphate pH 7.4
[4] = Table 5, 100 mM sodium phosphate pH 7.4, longest wavelength transition
[5] = Table 5, relative to 9,10-diphenyl anthracene (excited at 340 nm)
[6] = Table 5, relative to 9,10-diphenyl anthracene (excited at 365 nm)
[7] = Table 3, in water, relative to 9,10-diphenyl anthracene (excited at 365 nm)
[8] = Table 3 hydroxyl-amine probes, in water
[9] = Table 4, in water, relative to 9,10-diphenyl anthracene (excited at 365 nm)
[10] = Table 4 indoles, in water, first λmax column
[11] = Table 4 indoles, in water, second λmax
[12] = Table 4, in water, relative to coumarin 6 (excited at 420 nm)
[13] = Table 4, in water, relative to 9,10-diphenyl anthracene (excited at 340 nm)

7-(1H-Indol-5-yl)-4-methyl-chromen-2-one [Probe 4]
ε (M^−1cm^−1) [1, 3]: 11,600 ± 800 M^−1cm^−1 | λmax (nm) [1, 4]: 349 nm | ΦEtOH [1, 5]: 0.36 ± 0.07^a | ΦH2O [1, 5]: 0.13 ± 0.02^a

7-(4-Amino-phenyl)-4-methyl-chromen-2-one [Probe 1]
ε (M^−1cm^−1) [1, 3]: 13,000 ± 1,000 M^−1cm^−1 | λcm (nm) [1, 3]: 484 nm | λmax (nm) [1, 4]: 390 nm | ΦEtOH [1, 6]: 0.0287 ± 0.0006^b | ΦH2O [1, 6]: 0.00112 ± 0.00008^b

7-[4-Amino-3-(2-hydroxy-ethyl)-phenyl]-4-methyl-chromen-2-one [Probe 3]
λcm (nm) [1, 3]: 492 nm | λmax (nm) [1, 4]: 350 nm | ΦH2O [1, 5]: 0.010 ± 0.003^a

Cc1cc(=O)oc2ccc(N)c(CCN)c12 [IV]
Φ ([1]; Table 2, in water, relative to 9,10-diphenyl anthracene (excited at 340 nm)): 0.010

Nc1ccc2oc(=O)ccc2c1CCO [IX]
Φ [1, 7]: 0.0017 | ε (M^−1cm^−1) [1, 8]: 3,400 ± 500 M^−1cm^−1 | λmax (nm) [1, 8]: 357 nm

CCN(CC)c1ccc2c(C)c(-c3ccc(N)c(CCN)c3)c(=O)oc2c1 [I]
ε (M^−1cm^−1) ([1]; Table 2 diamines, in water): 13,000 ± 1,000 M^−1cm^−1 | λcm (nm) ([1]; Table 2 diamines, in water): 484 nm | λmax (nm) ([1]; Table 2 diamines, in water): 390 nm

CCN(CC)c1ccc2c(C)c(-c3ccc(N)c(CCO)c3)c(=O)oc2c1 [Probe 16, 3-[4-Amino-3-(2-hydroxy-ethyl)-phenyl]-7-diethylamino-4-methyl-chromen-2-one]
solubility in aqueous solution [2]: reasonably soluble | chemical stability (Chemical stability): chemically and photo-physically stable | fluorescence, in words [1]: much less fluorescent than Probe 17

Cc1c(-c2ccc3[nH]ccc3c2)c(=O)oc2c3c4c(cc12)CCCN4CCC3 [Probe 24, 9-(1H-Indol-5-yl)-8-methyl-2,3,5,6-tetrahydro-1H, 4H-11-oxa-3a-aza-benzo[de]anthracen-10-one]
emission wavelength [1]: 495 nm

O=c1oc2c3c4c(cc2c(C(F)(F)F)c1-c1ccc2[nH]ccc2c1)CCCN4CCC3 [Probe 25, 9-(1H-Indol-5-yl)-8-trifluoromethyl-2,3,5,6-tetrahydro-1H, 4H-11-oxa-3a-aza-benzo[de]anthracen-10-one]
fluorescence quantum yield, in words [1]: rather low quantum yield | fluorescence, in words [1]: distinct red-shift emission

Cc1cc(=O)oc2c1ccc1[nH]ccc12 [Probe 36, 4-Methyl-7H-pyrano[2,3-e]indol-2-one]
fluorescence, in words [1]: very weak fluorescence emission intensity; also recorded: very weakly fluorescent

Cc1cc(=O)oc2ccc3[nH]ccc3c12 [Probe 52, 9-Methyl-3H-pyrano[3,2-e]indol-7-one]
fluorescence, in words [1]: quite fluorescent

Cc1cc(=O)oc2ccc3cc[nH]c3c12 [Probe 55, 9-Methyl-1H-pyrano[2,3-g]indol-7-one]
fluorescence, in words [1]: quite fluorescent

Cc1cc(=O)oc2ccc(N)c(CCO)c12 [Probe 57, 6-Amino-5-(2-hydroxy-ethyl)-4-methyl-chromen-2-one]
solubility in aqueous solution [2]: very soluble | chemical stability (Chemical stability): chemically and photo-physically stable | fluorescence, in words [1]: essentially non-fluorescent; also recorded: very weakly fluorescent

Nc1cc2ccc(=O)oc2cc1CCO [Probe 58, 6-Amino-7-(2-hydroxy-ethyl)-chromen-2-one]
fluorescence, in words [1]: basically non-fluorescent; also recorded: very weakly fluorescent

Nc1c(CCO)ccc2oc(=O)ccc12 [Probe 81, 5-Amino-6-(2-hydroxy-ethyl)-chromen-2-one]
fluorescence, in words [1]: very weakly fluorescent; also recorded: only weak fluorescence

CCN(CC)c1ccc2c(C)c(-c3ccc(N)c(CCN)c3)c(=O)oc2c1 [Probe 114, 3-[4-Amino-3-(2-amino-ethyl)-phenyl]-7-diethylamino-4-methyl-chromen-2-one]
solubility in aqueous solution [2]: water solubility | chemical stability (Chemical stability): desired chemical stability

Cc1cc(=O)oc2ccc(N)c(CCN)c12 [Probe 115, 6-Amino-5-(2-amino-ethyl)-4-methyl-chromen-2-one]
chemical stability (Chemical stability): stable when protonated; also recorded: very unstable once deprotonated, or even under neutral condition

NCCc1cc2oc(=O)ccc2cc1N [Probe 116, 6-Amino-7-(2-amino-ethyl)-chromen-2-one]
chemical stability (Chemical stability): perfectly stable | fluorescence, in words [1]: very weakly fluorescent

CC12CC(=O)Oc3ccc(N)c(c31)CCN2 (centres unmarked) [Probe 125, 7-Amino-3a-methyl-3a,4,5,6-tetrahydro-3H-1-oxa-4-aza-phenalen-2-one]
fluorescence, in words [1]: non-fluorescent

Nc1cc2ccc(=O)oc2cc1CCO [VIII]
λmax (nm) [1, 8]: 354 nm

Cc1c(-c2ccc(N)c(CCO)c2)c(=O)oc2c3c4c(cc12)CCCN4CCC3 [VII]
Φ [1, 7]: 0.0040 | ε (M^−1cm^−1) [1, 8]: 21,000 ± 2,000 M^−1cm^−1 | λcm (nm) [1, 8]: 499 nm | λmax (nm) [1, 8]: 391 nm

CCN(CC)c1ccc2c(C)c(-c3ccc(N)c(CCO)c3)c(=O)oc2c1 [VI]
Φ [1, 7]: 0.014 | ε (M^−1cm^−1) [1, 8]: 15,000 ± 1,000 M^−1cm^−1 | λcm (nm) [1, 8]: 499 nm | λmax (nm) [1, 8]: 394 nm

NCCc1ccc2oc(=O)ccc2c1N [V]
ε (M^−1cm^−1) ([1]; Table 2 diamines, in water): 6,000 ± 100 M^−1cm^−1 | λmax (nm) ([1]; Table 2 diamines, in water): 299 nm

CCN(CC)c1ccc2c(C)c(-c3ccc4cc[nH]c4c3)c(=O)oc2c1 [XIII]
Φ [1, 9]: 0.0103 ± 0.0003^b | ε (M^−1cm^−1) ([1]; Table 4 indoles, in water): 20,000 ± 3,000 M^−1cm^−1 | λmax (nm) [1, 10]: 399 nm | λmax (nm) [1, 11]: 484 nm

CCN(CC)c1ccc2cc(-c3ccc4[nH]ccc4c3)c(=O)oc2c1 [XII]
Φ [1, 12]: 0.08 ± 0.02^c | ε (M^−1cm^−1) ([1]; Table 4 indoles, in water): 17,000 ± 1,000 M^−1cm^−1 | λmax (nm) [1, 10]: 401 nm | λmax (nm) [1, 11]: 477 nm

O=c1oc2c3c4c(cc2cc1-c1ccc2[nH]ccc2c1)CCCN4CCC3 [XIV]
Φ [1, 9]: 0.050 ± 0.005^b | λmax (nm) [1, 10]: 388 nm | λmax (nm) [1, 11]: 501 nm

O=c1ccc2c(ccc3[nH]ccc32)o1 [XIX]
Φ [1, 12]: 0.05 ± 0.02^c | ε (M^−1cm^−1) ([1]; Table 4 indoles, in water): 9,400 ± 900 M^−1cm^−1 | λmax (nm) [1, 10]: 355 nm | λmax (nm) [1, 11]: 517 nm

Cc1cc(=O)oc2cc(-c3ccc4[nH]ccc4c3)ccc12 [XI]
Φ [1, 13]: 0.00329 ± 0.00008^a | λmax (nm) [1, 10]: 339 nm | λmax (nm) [1, 11]: 445 nm

Cc1cc(=O)oc2ccc3[nH]ccc3c12 [XVIII]
Φ [1, 13]: 0.18 ± 0.05^a | ε (M^−1cm^−1) ([1]; Table 4 indoles, in water): 11,600 ± 800 M^−1cm^−1 | λmax (nm) [1, 10]: 349 nm | λmax (nm) [1, 11]: 492 nm

Cc1cc(=O)oc2ccc3cc[nH]c3c12 [XVII]
Φ [1, 13]: 0.0531 ± 0.0001^a | ε (M^−1cm^−1) ([1]; Table 4 indoles, in water): 14,000 ± 3,000 M^−1cm^−1 | λmax (nm) [1, 10]: 330 nm | λmax (nm) [1, 11]: 488 nm

O=c1oc2c3c4c(cc2c(C(F)(F)F)c1-c1ccc2[nH]ccc2c1)CCCN4CCC3 [XV]
λmax (nm) [1, 10]: 439 nm | λmax (nm) [1, 11]: 557 nm

O=c1ccc2cc3[nH]ccc3cc2o1 [XX]
Φ [1, 13]: 0.0082 ± 0.0004^a | ε (M^−1cm^−1) ([1]; Table 4 indoles, in water): 17,000 ± 2,000 M^−1cm^−1 | λmax (nm) [1, 10]: 335 nm | λmax (nm) [1, 11]: 524 nm

Nc1c(CCO)ccc2oc(=O)ccc12 [X]
ε (M^−1cm^−1) [1, 8]: 13,000 ± 3,000 M^−1cm^−1 | λmax (nm) [1, 8]: 298 nm

[4-(4-Methyl-2-oxo-2H-chromen-7-yl)-phenyl]-carbamic acid tert-butyl ester [Probe 2]
ε (M^−1cm^−1) [1, 3]: 17,000 ± 1,000 M^−1cm^−1 | λcm (nm) [1, 3]: 477 nm | λmax (nm) [1, 4]: 401 nm | ΦEtOH [1, 6]: 0.59 ± 0.09^b | ΦH2O [1, 6]: 0.08 ± 0.01^b
